Where two headings read alike, the source gives them in different places.
Key:
[1] = system: L1210 mouse leukemia cells transformed with the pHaMDR1/A retrovirus carrying a MDR1 cDNA; assay: cells; assay type: cell-based; settings: for MDR Ratio: IC50 Dox / IC50 Dox+Inhibitor, 2.5 μM compound; for IC50: Mus musculus, doxorubicin alone
Procedure: To assay the ability of the compounds according to this invention to increase the antiproliferative activity of a drug, cell lines which are known to be resistant to a particular drug may be used. These cell lines include, but are not limited to, the L1210, P388D, CHO and MCF7 cell lines. Alternatively, resistant cell lines may be developed. The cell line is exposed to the drug to which it is resistant, or to the test compound; cell viability is then measured and compared to the viability of cells which are exposed to the drug in the presence of the test compound.
To carry out assays using L1210 mouse leukemia cells transformed with the pHaMDR1/A retrovirus carrying a MDR1 cDNA, we follow the procedure described by Pastan et al., Proc. Natl. Acad. Sci., Vol. 85, […] 4490 (1988). The resistant line, labelled L1210VMDRC.06, is obtained from Dr. M. M. Gottesman of the National Cancer Institute. Drug-resistant transfectants are selected by culturing cells in […] colchicine.
Multi-drug resistance assays are conducted by plating cells (2×10^3, 1×10^4, or 5×10^4 cells/well) in 96 well microtiter plates and exposing them to a concentration range of doxorubicin (50 nM-10 μM) in the presence or absence of multi-drug resistance modifier compounds ("MDR inhibitors") of this invention (1, 2.5 or 10 μM) as described in Ford et al., Cancer Res., Vol. 50, 1748-1756. (1990). After culture for 3 days, the viability of cells is quantitated using MTT (Mossman) or XTT dyes to assess mitochondrial function. Also see, Mossman T., J. Immunol. Methods, Vol. 65, 55-63 (1983).
Results are determined by comparison of the IC50 for doxorubicin alone to the IC50 for doxorubicin+MDR inhibitor. An MDR ratio is calculated (IC50 Dox/ IC50 Dox+Inhibitor) and the integer value used for comparison of compound potencies. […]

[2] = target: FKBP12 (Homo sapiens, UniProt P62942); assay: FKBP12 binding assay (inhibition of rotomase activity); assay type: biochemical; settings: apparent Ki
Description: Preferably, the assay measures inhibition of FKBP12 rotomase activity. Such an assay has also been described by M. W. Harding et al., supra and by J. J. Siekierka et al., supra. In this assay the isomerization of an artificial substrate--N-succinyl-Ala-Ala-Pro-Phe-p-nitroanilide--is followed spectrophotometrically. The assay includes the cis form of the substrate, FKBP12, the inhibitor and chymotrypsin. Chymotrypsin is able to cleave p-nitroanilide from the trans form of the substrate, but not the cis form. Release of p-nitroanilide is measured.
The inhibition of FKBP rotomase activity by the preferred FKBP12 binding compounds present in the compositions of this invention was assayed. In this assay various quantities of FKBP12 binding compound (0nM-10 μM) were added to cis-N-succinyl-Ala-Ala-Pro-Phe-p-nitroanilide in the presence of FKBP12 and chymotrypsin. FKBP12 converts the cis form of the substrate to the trans form. This allows chymotrypsin to cleave p-nitroanilide from the substrate. Release of p-nitroanilide was measured spectrophotometrically. This assay allowed me to measure the change in the first order rate constant of the rotomase activity as a function of FKBP12 binding compound concentration and yielded an estimate of apparent Ki.

Sequence of FKBP12 (P62942 whole entry, species assumed): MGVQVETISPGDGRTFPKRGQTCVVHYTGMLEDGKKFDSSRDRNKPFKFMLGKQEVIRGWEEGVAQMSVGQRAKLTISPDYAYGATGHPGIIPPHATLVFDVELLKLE

Ki [2]	IC50 ([1]; L1210, read-out: IC50 DXR Alone, Date 4/21/95)	IC50 ([1]; L1210, read-out: IC50 DXR Alone, Date 5/12/95)	Compound	MDR Ratio ([1]; Date 5/12/95)	MDR Ratio ([1]; Date 4/21/95)
12 nM			CCOCc1cccc(COCC)c1-c1ccc([C@@H](CCN2CCOCC2)OC(=O)[C@@H]2CCCCN2C(=O)C(=O)C2(C)CCCCC2)s1 [Compound 79]	7.8	
930 nM			CCCCc1ccc(C)n1-c1cccc([C@@H](CCN2CCOCC2)OC(=O)[C@@H]2CCCCN2C(=O)C(=O)[C@@H]2C[C@H](C(C)(C)OC)CC[C@H]2C)c1 [Compound 112]	10.8	
7600 nM			CCCc1ccc(CCC)n1-c1cccc([C@@H](CCN2CCOCC2)OC(=O)[C@@H]2CCCCN2C(=O)C(=O)[C@@H]2C[C@H](C(C)(C)OC)CC=C2C)c1 [Compound 107]	8.8	
71 nM			COC/C=C(\c1cncc([C@@H](OC(=O)[C@@H]2CCCCN2C(=O)C(=O)CC(C)C)/C(C)=C/[C@H]2CC[C@H](O)CC2)c1)C1CCCCC1 [Compound 59]	10.8	
61 nM			CCC/C(=C/COC)c1cncc([C@@H](CCN2CCOCC2)OC(=O)[C@@H]2CCCCN2C(=O)C(=O)C(C)(C)C(C)C)c1 [Compound 113]	7.0	
9 nM			C=CCC/C=C(/c1cccnc1)c1ccc(C(CCN2CCOCC2)OC(=O)[C@@H]2CCCCN2C(=O)C(=O)C(C)(C)C(C)C)s1 (some centres unmarked) [Compound 90]	7.4	
0.5 nM			COc1cc(C(=O)C(=O)N2CCCC[C@H]2C(=O)O[C@H](CCCc2ccccc2)c2cncc(-c3c(OC)cccc3OC)c2)cc(OC)c1OC [Compound 24]	> 14.0	
27 nM			CCC/C=C(\c1cccnc1)c1cccc([C@@H](CCN2CCOCC2)OC(=O)[C@@H]2CCCCN2C(=O)C(=O)c2cc(OC)c(OC)c(OC)c2)c1 [Compound 30]	14.0	
20 nM			CC/C=C(/c1cccnc1)c1cccc([C@H](CCCc2ccccc2)OC(=O)[C@@H]2CCCCN2C(=O)C(=O)c2cc(OC)c(OC)c(OC)c2)c1 [Compound 28]	10.0	
800 nM			CCCc1ccc(CCC)n1-c1cccc([C@@H](CCN2CCOCC2)OC(=O)[C@@H]2CCCCN2C(=O)C(=O)[C@@H]2C[C@H](OCC)CC[C@H]2C)c1 [Compound 111]	9.3	
> 10000 nM			CCOCc1cccc(COCC)c1-c1csc([C@H](CCN2CCOCC2)OC(=O)[C@@H]2CCCCN2C(=O)C(=O)C2CCOCC2)c1 [Compound 61]	2.5	
263 nM			CCOCc1cccc(COCC)c1-c1cncc(C(CCN2CCOCC2)OC(=O)[C@@H]2CCCCN2C(=O)C(=O)C(C)(C)C(C)C)c1 (some centres unmarked) [Compound 89]	5.0	
2800 nM			CCC/C(=C/COC)c1cncc([C@@H](CCN2CCOCC2)OC(=O)[C@@H]2CCCCN2C(=O)C(=O)[C@@H]2C[C@H](C(C)(C)OC)CC[C@H]2C)c1 [Compound 123]		12.4
500 nM			COCc1cccc(COC)c1-c1cncc([C@@H](OC(=O)[C@@H]2CCCCN2C(=O)C(=O)c2ccco2)/C(C)=C/[C@H]2CC[C@H](O)CC2)c1 [Compound 40]	2.5	
200 nM			C=CCC/C=C(/c1cccnc1)c1ccc([C@@H](OC(=O)[C@@H]2CCCCN2C(=O)C(=O)C(C)(C)C)/C(C)=C/C2CCN(C)CC2)s1 [Compound 52]	4.1	5.8
	2100 nM	700 nM	COc1cccc2c1C(=O)c1c(O)c3c(c(O)c1C2=O)C[C@@](O)(C(=O)CO)C[C@@H]3O[C@H]1C[C@H](N)[C@H](O)[C@H](C)O1 [DXR, doxorubicin, reference compound]		
9.8 nM			COc1cc(C(=O)C(=O)N2CCCC[C@H]2C(=O)O[C@H](/C(C)=C/[C@H]2CC[C@H](O)CC2)c2cncc(-c3c(OC)cccc3OC)c2)cc(OC)c1OC [Compound 32]	11.7	
8 nM			C=CCC/C=C(\c1ccc(C(CCN2CCOCC2)OC(=O)[C@@H]2CCCCN2C(=O)C(=O)C(C)(C)C(C)C)s1)C1CCOCC1 (some centres unmarked) [Compound 91]	2.7	

Ki [2]	IC50 ([1]; L1210, read-out: IC50 DXR Alone, Date 4/21/95)	IC50 ([1]; L1210, read-out: IC50 DXR Alone, Date 5/12/95)	Compound	MDR Ratio ([1]; Date 5/12/95)	MDR Ratio ([1]; Date 4/21/95)
94 nM			CCCc1ccc(CCC)n1-c1cccc([C@@H](CCN2CCOCC2)OC(=O)[C@@H]2CCCCN2C(=O)C(=O)[C@@H]2CCCC[C@H]2C)c1 [Compound 105]	5.4	
400 nM			CCOCc1cccc(COCC)c1-c1cncc([C@H](CCN2CCOCC2)OC(=O)[C@@H]2CCCCN2C(=O)C(=O)C2(C)CCCCC2)c1 [Compound 76]	6.4	
2.4 nM			CCC/C=C(/c1cccnc1)c1cccc([C@@H](CCN2CCOCC2)OC(=O)[C@@H]2CCCCN2C(=O)C(=O)c2cc(OC)c(OC)c(OC)c2)c1 [Compound 26]	8.8	
718 nM			CCOCc1cccc(COCC)c1-c1cncc([C@@H](CCN2CCOCC2)OC(=O)[C@@H]2CCCCN2C(=O)C(=O)CC(C)C)c1 [Compound 73]		
380 nM			CCC/C=C(\c1cncc(C(OC(=O)[C@@H]2CCCCN2C(=O)C(=O)C2(O)CCC(OC)CC2)/C(C)=C/c2ccncc2)c1)C1CCCCC1 (some centres unmarked) [Compound 100]	< 14.0	
5 nM			COc1ccc(C(=O)C(=O)N2CCCC[C@H]2C(=O)O[C@H](CCCc2ccccc2)c2cncc(-c3ccccc3OC)c2)cc1OC [Compound 13]		
260 nM			CCC/C=C(/c1cccnc1)c1cccc([C@H](CCN2CCOCC2)OC(=O)[C@@H]2CCCCN2C(=O)C(=O)c2cc(OC)c(OC)c(OC)c2)c1 [Compound 27]	12.7	
70 nM			CCC/C=C(/c1ccc(C)cc1)c1cncc([C@@H](OC(=O)[C@@H]2CCCCN2C(=O)C(=O)c2ccc(F)cc2)/C(C)=C/[C@H]2CC[C@H](O)CC2)c1 [Compound 38]		
31 nM			CCCOc1ccc(OCCC)c(-c2cncc([C@@H](CCCc3ccccc3)OC(=O)[C@@H]3CCCCN3C(=O)C(=O)c3cc(OC)c(OC)c(OC)c3)c2)c1 [Compound 22]	1.3	12.4
1 nM			CC/C=C(/c1cccnc1)c1cccc([C@@H](CCCc2ccccc2)OC(=O)[C@@H]2CCCCN2C(=O)C(=O)c2cc(OC)c(OC)c(OC)c2)c1 [Compound 29]		
315 nM			CCOCc1cccc(COCC)c1-c1ccc([C@@H](CCN2CCOCC2)OC(=O)[C@@H]2CCCCN2C(=O)C(=O)CC(C)C)s1 [Compound 83]		
364 nM			C=CCC/C=C(/c1cccnc1)c1ccc([C@@H](OC(=O)[C@@H]2CCCCN2C(=O)C(=O)CC(C)C)/C(C)=C/C2CCN(C)CC2)s1 [Compound 71]		
16 nM			CCOc1ccc(OCC)c(-c2cncc([C@@H](CCCc3ccccc3)OC(=O)[C@@H]3CCCCN3C(=O)C(=O)c3cc(OC)c(OC)c(OC)c3)c2)c1 [Compound 10]		
180 nM			CCOCc1cc2ccccc2n1-c1cccc([C@@H](OC(=O)[C@@H]2CCCCN2C(=O)C(=O)c2ccco2)/C(C)=C/[C@H]2CC[C@H](O)CC2)c1 [Compound 43]	14.0	
315 nM			CCC/C=C(/C)c1cncc([C@@H](CCN2CCOCC2)OC(=O)[C@@H]2CCCCN2C(=O)C(=O)[C@@H]2C[C@H](C(C)(C)OC)CC[C@H]2C)c1 [Compound 133]		
53 nM			CCOCc1cc2ccccc2n1-c1cccc([C@H](OC(=O)[C@@H]2CCCCN2C(=O)C(=O)c2ccco2)/C(C)=C/[C@H]2CC[C@H](O)CC2)c1 [Compound 44]		
> 9000 nM			CCOCc1cc2ccccc2n1-c1cccc([C@H](OC(=O)[C@@H]2CCCCN2C(=O)C(=O)C(C)(C)COC)/C(C)=C/[C@H]2CC[C@H](O)CC2)c1 [Compound 58]		

Reference: patent publication US5935954A, “Compounds with improved multi-drug resistance activity” (Vertex Pharmaceuticals Incorporated, priority 1997, dated 1999)
